These results are taken from patent publication US9474790B2, “Stable, protracted GLP-1/glucagon receptor co-agonists for medical use” (Novo Nordisk A/S, priority 2013, dated 2016).

pEC50: −log10 of the molar value. Numbered stars: 1 amine (or outer) side, 2 acyl side, 3 side chain; on linkers, the order of the positions; unused ones are H or OH. Square brackets hold non-standard residues; d marks the D form. Side chains are listed from the residue outwards. Peptide text beside a SMILES is read from it. * marks the point of attachment. C18 diacid = O=C(O)CCCCCCCCCCCCCCCCC(=O)*; γGlu = O=C(O)[C@H](CCC(=O)[*:2])N[*:1]; AEEA = NCCOCCOCC(=O)O; Aib = CC(C)(N)C(=O)O

The target of one data set is T1, human GLP-1 receptor (Homo sapiens, UniProt P43220).
T1 construct: expressed in transfected cells; host or cells: BHK cells (parent BHKTS13), clone FCW467-12A/KZ10-1, with CRE luciferase
Kind of data set: GLP-1 receptor potency, CRE luciferase reporter gene assay in BHK cells. Type of data set: cell-based. As to conditions: BHK cells expressing human GLP-1 receptor, read-out: EC50 GLP-1R. In a few lines:
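Potency as cAMP-driven firefly luciferase signal after 3 h, 37° C exposure to 10-fold dilutions (final 1×10EE-13–1×10EE-6 M). Stable hGLP-1R/CRE-luc BHK clone, 5×10EE3 cells/well, medium containing 2% ovalbumin and 0.2% Pluronic F-68; EC50 (pM) from variable-slope non-linear regression.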

Data set [1] can be described thus: Thioflavin T (ThT) fibrillation assay for physical stability. The note with it: 250 μM in 10 mM HEPES buffer, pH 7.5, 37° C., shaking 960 rpm. Type of data set: physicochemical. In a few lines: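 Fibrillation was followed by ThT (1 μM) fluorescence every 20 min, 444/485 nm, for 250 μM peptide in 10 mM HEPES pH 7.5 shaken at 960 rpm, 37° C. Lag time (t0−2τ) and apparent rate constant (1/τ) come from a sigmoidal fit. Recovery is % of initial concentration remaining soluble after centrifugation and filtration (RP-HPLC).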

T1 sequence (P43220 24-463): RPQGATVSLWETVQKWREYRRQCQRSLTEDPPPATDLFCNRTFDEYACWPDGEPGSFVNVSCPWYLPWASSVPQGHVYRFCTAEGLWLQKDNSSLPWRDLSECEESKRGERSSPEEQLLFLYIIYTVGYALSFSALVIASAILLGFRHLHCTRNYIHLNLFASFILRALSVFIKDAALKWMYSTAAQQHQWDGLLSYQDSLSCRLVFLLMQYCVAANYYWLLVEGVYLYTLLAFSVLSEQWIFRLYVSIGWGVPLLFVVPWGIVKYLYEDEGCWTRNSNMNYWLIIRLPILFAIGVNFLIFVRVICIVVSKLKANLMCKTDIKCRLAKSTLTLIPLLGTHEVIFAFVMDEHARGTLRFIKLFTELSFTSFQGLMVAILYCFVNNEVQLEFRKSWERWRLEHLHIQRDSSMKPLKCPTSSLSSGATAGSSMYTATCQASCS

`CC(C)C[C@H](NC(=O)[C@H](Cc1c[nH]c2ccccc12)NC(=O)[C@H](CCC(N)=O)NC(=O)[C@@H](NC(=O)[C@H](Cc1ccccc1)NC(=O)[C@H](CCC(=O)O)NC(=O)[C@H](CCCNC(=N)N)NC(=O)[C@H](C)NC(=O)[C@H](CCCNC(=N)N)NC(=O)[C@H](CCCNC(=N)N)NC(=O)C(C)(C)NC(=O)[C@H](CC(=O)O)NC(=O)[C@H](CC(C)C)NC(=O)[C@H](Cc1ccc(O)cc1)NC(=O)[C@H](CCCCN)NC(=O)[C@H](CO)NC(=O)[C@H](CC(C)C)NC(=O)[C@H](CC(=O)O)NC(=O)[C@H](CO)NC(=O)[C@@H](NC(=O)[C@H](Cc1ccccc1)NC(=O)[C@@H](NC(=O)CNC(=O)[C@H](CCC(N)=O)NC(=O)C(C)(C)NC(=O)[C@@H](N)Cc1c[nH]cn1)[C@@H](C)O)[C@@H](C)O)C(C)C)C(=O)N[C@@H](CC(C)C)C(=O)N[C@@H](CCCCNC(=O)CC[C@H](NC(=O)CC[C@H](NC(=O)COCCOCCNC(=O)COCCOCCNC(=O)CC[C@H](NC(=O)CCCCCCCCCCCCCCCCC(=O)O)C(=O)O)C(=O)O)C(=O)O)C(=O)N[C@H](C(N)=O)[C@@H](C)O` [Example 51, N^ε28-[(4S)-4-carboxy-4-[[(4S)-4-carboxy-4-[[2-[2-[2-[[2-[2-[2-[[(4S)-4-carboxy-4-(17-carboxyheptadecanoylamino)butanoyl]amino]ethoxy]ethoxy]acetyl]amino]ethoxy]ethoxy]acetyl]amino]butanoyl]amino]butanoyl]-[Aib2,Leu10,Aib16,Arg20,Glu21,Leu27,Lys28]-Glucagon amide] (H-H[Aib]QGTFTSDLSKYLD[Aib]RRAREFVQWLLK([γGlu-γGlu-AEEA-AEEA-γGlu-C18 diacid])T-NH2; N-terminus assumed): on human GLP-1 receptor, the negative-log EC50 (pEC50) was 11.22. The molecule further displayed a THT assay Lag time (Ex. 76) in data set [1] of 45 h.
